Results reported in paper PMC12648108, “Phenotypic pleiotropy of missense variants in human B cell confinement receptor P2RY8” (Cell Genomics, 2025).

Assays:
[1] = target: T1, P2RY8-miniGα13 in complex with Gβ1γ2 (Homo sapiens, UniProt Q86VZ1); assay: cryo-EM structure, […] Å map; type: binding; settings: orthosteric pocket; active state, Gβ1γ2 bound; pH 7.5, L-MNG/GDN/CHS, 30 μM GGG
T1 construct: Expi293F TetR; complexed with human Gβ1γ2 from Hi5 cells

P2RY8 [2] = target: T2, P2RY8 (Homo sapiens, UniProt Q86VZ1, L220Y); assay: TRUPATH BRET G13 activation assay; type: cell-based; settings: agonist (falling BRET ratio); HEK293T with Gα13-RLuc8, Gβ3, Gγ9-GFP2; HBSS, 20 mM HEPES
T2 construct: full length, 358 codons after start to 358; preprolactin signal + N-terminal OX56 tag (P2A-eGFP vector) for BRET; P2RY8-LgBiT fusion for beta-arrestin; MSCV-GFP vector in WEHI-231; expressed in HEK293T or WEHI-231

P2RY8 [3] = target: T3, P2RY8 (Homo sapiens, UniProt Q86VZ1); assay: migration inhibition of P2RY8-transduced WEHI-231 cells; type: cell-based; settings: agonist; CXCL12 50 ng/mL, 37 °C, 3 h
T3 construct: full length, 358 codons after start to 358; preprolactin signal + N-terminal OX56 tag (P2A-eGFP vector) for BRET; P2RY8-LgBiT fusion for beta-arrestin; MSCV-GFP vector in WEHI-231; expressed in HEK293T or WEHI-231

SMILES | cryo-EM structure, 2.7 Å map [1] | G protein activation (P2RY8 [2]) | fold less potency than GGG (P2RY8 [3])
CC(C)=CCC/C(C)=C/CC/C(C)=C/CC/C(C)=C/CSC[C@H](NC(=O)CC[C@H](N)C(=O)O)C(=O)NCC(=O)O [S-geranylgeranyl-L-glutathione] | density consistent with GGG located in the canonical class A GPCR orthosteric ligand-binding pocket | The strongly deleterious variant L220Y was unable to drive G protein activation | –
CCCCC/C=C\C\C=C/C=C/C=C/[C@@H](SC[C@H](NC(=O)CC[C@H](N)C(=O)O)C(=O)NCC(=O)O)[C@@H](O)CCCC(=O)O [leukotriene C4] | – | – | ~ 100 fold
